According to paper PMC11491004, “CHF6523 data suggest that the phosphoinositide 3-kinase delta isoform is not a suitable target for the management of COPD” (Respiratory Research, 2024):

How the values were obtained:
[1] = COPD Assessment Test and rescue medication use; assay type: in vivo, human
Experimental: (§1) All assessment timings were based on the morning dose. Pre-dose on Days 1 and 28 of each treatment period, blood samples were taken for pharmacokinetic analyses, followed by forced oscillation (including slow vital capacity manoeuvres for inspiratory capacity [IC] and vital capacity [VC]), spirometry (forced expiratory volume in 1 s [FEV1] and forced vital capacity [FVC]), and the COPD Assessment Test (CAT). Blood samples were also taken up to 12 h post-dose on Days 1 and 28 for pharmacokinetic analyses, with blood samples for biomarker assessment pre-dose on Day 1 and 2 h post-dose on Day 28, and spirometry pre-dose on Days 20 and 24. Sputum was induced prior to each treatment period for baseline determination of biomarkers, and post-dose on Day 20 for collection of phosphatidylinositol (3,4,5)-trisphosphate (PIP3), and on Days 24 and 28 for collection of biomarkers.
(§2) Fold-change from baseline in cell counts, target biomarkers in sputum and blood, and PIP3 were log-transformed and analysed using an analysis of covariance (ANCOVA) model, with treatment, patient, and period as fixed effects, and baseline value as covariate. Changes from baseline in spirometry, forced oscillation and CAT endpoints were analysed using a similar ANCOVA model, but without log transformation. Rescue medication data were analysed using an analysis of variance model, including treatment, period and patient as fixed effects. Other data, including the proportion of days on which patients coughed and the cough VAS results, are presented descriptively only. Further details, including the transcriptomics, mass-spectrometry and Olink proteomics, bioinformatics and multi-omic data integration are in the supplement.

[2] = test system: proteins in sputum; assay: Olink proteomics in sputum (Target 96 Inflammation and Target 48 Cytokine panels); assay type: in vivo, human
Experimental: For the proteomics evaluation, sputum samples were run on the Target 48 Cytokine panel, and the Target 96 Inflammation panel (Olink Protemics, Uppsala, Sweden). In the Target 48 Cytokine panel, 45 cytokines were quantified in terms of their absolute concentration. For the Target 96 Inflammation panel, 92 proteins involved in inflammation processes were evaluated, with the results expressed as Normalized Protein eXpression (NPX; the manufacturer’s arbitrary unit, in Log2 scale). […] In the statistical model, using sputum Target 96 and 48 data, change from pre-dose to post-dose expression were used as dependent variable, and patient, period, treatment and pre-dose expression as independent variable.

[3] = CHF6523 plasma pharmacokinetics in patients with COPD; assay type: in vivo, human; conditions: for AUC0–30 min / AUC0–12 h / Cmax: 2 mg twice daily inhaled
Experimental: as §1
Pharmacokinetic assessments were performed under fasting conditions. On days when pharmacokinetic samples were taken, study drug was administered in the morning at the clinical site after a fast of ≥ 10 h (water was allowed), with food or fluid intake not allowed until 1 h post-dose, with the exception of 100 mL of water if the patient coughed as a result of inhalation. Starting from 1 h post-dose and for the following 6 h, patients drank ≥ 240 mL of water every 2 h, with breakfast and lunch served approximately 3 and 5 h after morning study drug, and, on Day 1, dinner at least 2 h before or 1 h after evening drug administration. No intake of alcohol, grapefruit, or xanthine/caffeine containing beverages or food was allowed from 48 h prior to each intake of study medication and until the last visit procedure, with strenuous exercise prohibited for 24 h before any spirometry measurement.
Blood samples of 2 mL were collected in K2-EDTA tubes at pre-dose and at 10, 15, 30, and 45 min and 1, 1½, 2, 3, 4, 6, 8 and 12 h post-dose on Days 1 and 28, and pre-dose on Days 20 and 24. Collected samples were centrifuged within 1 h after blood in a refrigerated centrifuge (at about +4°C) at about 2000 x g for 10 min. The plasma obtained was transferred into two polypropylene tubes (at least 500 μL into the first, and the remaining volume into the second), then stored at or below –80°C, at the clinical centre. The tubes were then transferred (frozen) to a central laboratory, and stored at –80°C until submitted for analysis with a validated liquid chromatography with tandem mass spectrometry (LC/MS-MS) method. Two validated methods were used to cover the range of possible concentrations. The first one, the so-called low-range method, measured CHF6523 over the calibration range 0.02–1.00 ng/mL. The second, the high-range method, measured CHF6523 over the calibration range 1.00–50.0 ng/mL. Overall, the lower limit of quantification in this study (LLoQ) was of 0.02 ng/mL.

[4] = biological target: PI3Kδ (Homo sapiens, UniProt O00329); assay: Target engagement: PIP3 in induced sputum; assay type: in vivo; design: from tissue; host or cells: induced sputum of COPD patients (in vivo dosing by inhalation)
Experimental: as §1, §2

Sequence of PI3Kδ (O00329 whole entry): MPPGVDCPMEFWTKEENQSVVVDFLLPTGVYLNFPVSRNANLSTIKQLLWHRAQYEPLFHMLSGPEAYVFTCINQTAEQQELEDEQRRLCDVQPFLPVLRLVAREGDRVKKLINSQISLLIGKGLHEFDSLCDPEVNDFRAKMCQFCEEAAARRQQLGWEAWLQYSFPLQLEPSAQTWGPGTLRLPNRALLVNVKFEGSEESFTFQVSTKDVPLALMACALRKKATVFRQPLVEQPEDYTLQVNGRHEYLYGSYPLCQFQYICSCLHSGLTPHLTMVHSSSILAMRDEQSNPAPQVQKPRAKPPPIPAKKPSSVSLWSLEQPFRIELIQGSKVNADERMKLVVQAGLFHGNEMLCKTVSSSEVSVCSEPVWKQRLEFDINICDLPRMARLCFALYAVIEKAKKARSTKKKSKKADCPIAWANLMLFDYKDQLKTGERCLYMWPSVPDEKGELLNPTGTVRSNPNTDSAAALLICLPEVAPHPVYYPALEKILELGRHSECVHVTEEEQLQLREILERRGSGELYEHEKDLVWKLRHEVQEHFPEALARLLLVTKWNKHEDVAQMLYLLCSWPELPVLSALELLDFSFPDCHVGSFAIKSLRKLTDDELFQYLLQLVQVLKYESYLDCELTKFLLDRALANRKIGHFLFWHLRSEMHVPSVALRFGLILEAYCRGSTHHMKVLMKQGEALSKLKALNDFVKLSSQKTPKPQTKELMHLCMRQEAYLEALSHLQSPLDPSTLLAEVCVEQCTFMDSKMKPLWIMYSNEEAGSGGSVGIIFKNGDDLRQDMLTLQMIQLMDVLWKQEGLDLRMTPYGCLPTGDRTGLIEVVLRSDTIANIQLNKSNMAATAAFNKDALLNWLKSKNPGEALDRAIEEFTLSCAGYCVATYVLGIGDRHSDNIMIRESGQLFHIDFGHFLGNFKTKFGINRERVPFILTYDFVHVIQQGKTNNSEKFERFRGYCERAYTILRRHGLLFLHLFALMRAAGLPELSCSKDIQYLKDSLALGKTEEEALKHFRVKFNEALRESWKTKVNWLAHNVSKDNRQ
Sequence of PI3Kδ (P27986 whole entry partner): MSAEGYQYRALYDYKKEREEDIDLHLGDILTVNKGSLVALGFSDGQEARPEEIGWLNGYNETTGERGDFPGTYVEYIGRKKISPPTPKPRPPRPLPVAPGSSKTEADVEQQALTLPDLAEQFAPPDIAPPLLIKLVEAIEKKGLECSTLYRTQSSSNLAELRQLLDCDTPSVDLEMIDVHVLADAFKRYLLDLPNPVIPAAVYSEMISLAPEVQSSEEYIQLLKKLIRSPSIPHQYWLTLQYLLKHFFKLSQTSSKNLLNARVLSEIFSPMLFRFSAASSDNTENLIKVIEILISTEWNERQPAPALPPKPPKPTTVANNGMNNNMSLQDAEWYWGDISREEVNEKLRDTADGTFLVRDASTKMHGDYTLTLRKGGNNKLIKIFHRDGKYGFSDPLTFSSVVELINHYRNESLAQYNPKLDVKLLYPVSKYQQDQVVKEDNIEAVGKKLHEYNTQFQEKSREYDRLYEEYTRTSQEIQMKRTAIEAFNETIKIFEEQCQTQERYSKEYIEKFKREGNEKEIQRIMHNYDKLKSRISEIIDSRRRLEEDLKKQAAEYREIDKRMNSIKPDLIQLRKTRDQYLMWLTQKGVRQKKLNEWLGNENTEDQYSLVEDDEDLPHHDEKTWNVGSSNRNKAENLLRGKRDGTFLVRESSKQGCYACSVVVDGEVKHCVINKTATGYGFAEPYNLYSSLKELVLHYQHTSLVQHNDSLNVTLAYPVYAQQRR

C[C@@H](c1oc(=O)c2ccccc2c1-c1cccc(CN2CCN(C)CC2)c1)n1nc(-c2cncc(O)c2)c2c(N)ncnc21 [CHF6523]
Rescue medication use, adjusted mean (95% CI) ([1]; 28-day treatment period): 1.69 (1.40, 1.99) Puffs/day | Rescue medication use, adjusted mean difference CHF6523 vs placebo (95% CI) ([1]; 28-day treatment period): 0.28 (–0.14, 0.70); p=0.190 Puffs/day | Rescue medication use: days with no use, adjusted mean (95% CI) ([1]; 28-day treatment period): 49.0 (40.3, 57.7) % | Rescue medication use: days with no use, adjusted mean difference CHF6523 vs placebo (95% CI) ([1]; 28-day treatment period): –5.7 (–17.9, 6.6); p=0.354% | COPD Assessment Test total score, adjusted mean difference CHF6523 vs placebo (95% CI) ([1]; Day 28): 0.6 (–0.7, 2.0); p=0.340 | Fold change in the Olink panels: IL-1B [2]: 0.771 | Fold change in the Olink panels: IL-6 [2]: 1.516 | Fold change in the Olink panels: IL-8 [2]: 1.151 | Fold change in the Olink panels: MCP-1 [2]: 0.732 | Fold change in the Olink panels: TNF [2]: 0.821 | Proteins significantly modulated by treatment, of the 74 evaluated ([2]; FDR < 0.05): none were significantly modulated by treatment | Time of peak of mean plasma concentration ([3]; Day 1): 15 min | median tmax ([3]; Day 1): 15 min | median tmax ([3]; Day 28): 11 min | Time of peak of mean plasma concentration ([3]; Day 28 (first post-dose timepoint)): 10 min | AUC0–30 min ([3]; plasma, Day 1, mean (SD)): 3.28 (1.64) ng.h/mL | AUC0–12 h ([3]; plasma, Day 1, mean (SD)): 8.10 (4.11) ng.h/mL | Cmax ([3]; plasma, Day 1, mean (SD)): 9.10 (4.42) ng/mL | tmax ([3]; plasma, Day 1, median (range)): 0.25 (0.15–2.00) h | Ctrough ([3]; plasma, Day 20 pre-dose, mean (SD)): 0.10 (0.05) ng/mL | Ctrough ([3]; plasma, Day 24 pre-dose, mean (SD)): 0.09 (0.06) ng/mL | AUC0–30 min ([3]; plasma, Day 28, mean (SD)): 4.21 (2.05) ng.h/mL | AUC0–12 h ([3]; plasma, Day 28, mean (SD)): 10.50 (5.32) ng.h/mL | Cmax ([3]; plasma, Day 28, mean (SD)): 11.70 (5.54) ng/mL | CL/Fss (apparent total body clearance at steady state) ([3]; plasma, Day 28, dose/AUC 0-12 h, mean (SD)): 239 (119) L/h | Cav ([3]; plasma, Day 28, mean (SD)): 0.88 (0.45) ng/mL | Cmin ([3]; plasma, Day 28, mean (SD)): 0.09 (0.03) ng/mL | tmax ([3]; plasma, Day 28, median (range)): 0.18 (0.15–0.27) h | tmin ([3]; plasma, Day 28, median (range)): 11.92 (8.13–12.17) h | Ctrough ([3]; plasma, Day 28 pre-dose, mean (SD)): 0.09 (0.06) ng/mL | Sputum PIP3 adjusted geometric mean fold change from baseline [95% CI] ([4]; Day 20): 0.703 [95% CI 0.606, 0.814] | Decrease from baseline in sputum PIP3 levels ([4]; Day 20, 2 mg twice daily inhaled): 29.7% | Sputum PIP3 adjusted ratio CHF6523 vs placebo [95% CI] ([4]; Day 20, p = 0.001): 0.705 [0.580, 0.856] | Sputum PIP3 difference between groups (reduction vs. placebo) ([4]; Day 20, p = 0.001): 29.5%
